Reference: patent US11059780B2, “Substituted pyrrolidine compound and use thereof” (Takeda Pharmaceutical Company Limited, priority 2017, dated 2021)

Each molecule was assayed against T1, human orexin type 2 receptor (hOX2R) (Homo sapiens, UniProt O43614) (assay: Measurement of orexin type 2 receptor agonist activity (Fluo-4 calcium fluorescence, CHO cells forcibly expressing human OX2 receptor)). Conditions: test compound 3 μM, DMSO = 0%, orexin A (human) 10 nM = 100%.
T1 construct: expressed in transfected cells
T1 sequence (O43614 1-444): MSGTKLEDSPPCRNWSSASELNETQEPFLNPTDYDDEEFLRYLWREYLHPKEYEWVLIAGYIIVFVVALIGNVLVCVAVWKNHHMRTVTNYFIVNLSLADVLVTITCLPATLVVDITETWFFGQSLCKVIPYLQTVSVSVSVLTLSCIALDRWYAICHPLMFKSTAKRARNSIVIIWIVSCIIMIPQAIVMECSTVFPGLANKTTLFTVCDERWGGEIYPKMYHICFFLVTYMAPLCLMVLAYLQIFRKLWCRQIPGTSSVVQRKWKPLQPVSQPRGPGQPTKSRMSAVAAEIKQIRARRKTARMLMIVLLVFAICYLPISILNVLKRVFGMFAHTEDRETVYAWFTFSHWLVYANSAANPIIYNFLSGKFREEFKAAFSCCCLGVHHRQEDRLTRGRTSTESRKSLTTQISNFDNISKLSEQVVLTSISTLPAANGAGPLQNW
Type: cell-based
Excerpt: Experimental Example 1: Obtainment of Cell Stably Expressing Human Orexin Type 2 Receptor (hOX2R)
To obtain a cell clone stably expressing human orexin type 2 receptor, human orexin type 2 receptor cDNA was inserted into pcDNA3.1(+) plasmid vector (Invitrogen), and a plasmid DNA for expression of human orexin type 2 receptor (pcDNA3.1(+)/hOX2R) was cloned. The plasmid DNA was introduced into CHO-dhfr cell by an electroporation method, and human orexin type 2 receptor expressing clone cells were obtained by limiting dilution method by using G418 drug resistance as a selection marker.
Experimental Example 2: Measurement of Orexin Type 2 Receptor Agonist Activity
CHO cells forcibly expressing human OX2 receptor were seeded in each well of 384 well black transparent bottom plate (BD Falcon) at 7,500 cells/well, and cultured for one day in a 5% CO2 incubator at 37° C. After removal of the medium in the cell plate, assay buffer A containing a calcium indicator (HBSS (Life Technologies), 20 mM HEPES (Life Technologies), 0.1% BSA (Wako Pure Chemical Industries, Ltd.), 2.5 μg/mL Fluo-4 AM (DOJINDO Chemical), 0.08% Pluronic F127 (DOJINDO Chemical), 1.25 mM probenecid (DOJINDO Chemical)) was added at 30 μL/well. The plate was stood for 30 min in a 5% CO2 incubator at 37° C., and further stood at room temperature for 30 min. A test compound prepared by diluting with assay buffer B (HBSS, 20 mM HEPES, 0.1% BSA) was added at 10 μL/well, and the fluorescence value was measured by FDSSpCELL (Hamamatsu Photonics K.K.) every one sec for 1 min, and thereafter every two sec for 1 min 40 sec. The activity (%) of the test compound was calculated assuming that variation in the fluorescence value when DMSO was added instead of the test compound was 0% […], and variation in the fluorescence value when orexin A (human) (PEPTIDE INSTITUTE, INC.) was added at the final concentration of 10 nM was 100% […]. The activity of each compound at the concentration of 3 μM was shown below.

| Compound | OX2R agonist activity (3 μM, %) [%] |
| --- | --- |
| CO[C@@H]1CN(C(=O)c2cc(C)ccc2C)C[C@H]1Oc1cccc(NS(=O)(=O)N2CCOCC2)c1 (relative stereo) [Example 4, trans-N-(3-((1-(2,5-dimethylbenzoyl)-4-methoxypyrrolidin-3-yl)oxy)phenyl)morpholine-4-sulfonamide] | 87 |
| CO[C@@H]1CN(C(=O)c2cc(C)ccc2C)C[C@H]1Oc1cccc(CS(=O)(=O)N2CCCC2)c1 (relative stereo) [Example 5, trans-(2,5-dimethylphenyl)(3-methoxy-4-(3-((pyrrolidin-1-ylsulfonyl)methyl)phenoxy)pyrrolidin-1-yl)methanone] | 32 |
| CO[C@@H]1CN(C(=O)c2cc(C)ccc2C)C[C@H]1Oc1cccc(CS(=O)(=O)N(C)c2ccncc2)c1 (relative stereo) [Example 7, trans-1-(3-((1-(2,5-dimethylbenzoyl)-4-methoxypyrrolidin-3-yl)oxy)phenyl)-N-methyl-N-(pyridin-4-yl)methanesulfonamide] | 32 |
| CO[C@@H]1CN(C(=O)c2cc(C)ccc2C)C[C@H]1Oc1cccc(CS(=O)(=O)N2CCOCC2CO)c1 (relative stereo) [Example 11, trans-(2,5-dimethylphenyl)(3-(3-(((3-(hydroxymethyl)morpholin-4-yl)sulfonyl)methyl)phenoxy)-4-methoxypyrrolidin-1-yl)methanone] | 62 |
| COC(=O)C1COCCN1S(=O)(=O)Cc1cccc(O[C@@H]2CN(C(=O)c3cc(C)ccc3C)C[C@H]2OC)c1 (relative stereo) [Example 12, methyl trans-4-((3-((1-(2,5-dimethylbenzoyl)-4-methoxypyrrolidin-3-yl)oxy)benzyl)sulfonyl)morpholine-3-carboxylate] | 60 |
| CO[C@@H]1CN(C(=O)c2cc(C)ccc2C)C[C@H]1Oc1cccc(CS(=O)(=O)N2CCCC2c2ccccn2)c1 (relative stereo) [Example 15, trans-(2,5-dimethylphenyl)(3-methoxy-4-(3-(((2-(pyridin-2-yl)pyrrolidin-1-yl)sulfonyl)methyl)phenoxy)pyrrolidin-1-yl)methanone] | 80 |
| CO[C@@H]1CN(C(=O)c2cc(C)ccc2C)C[C@H]1Oc1cccc(CS(=O)(=O)N2CCCC2c2cccnc2)c1 (relative stereo) [Example 16, trans-(2,5-dimethylphenyl)(3-methoxy-4-(3-(((2-(pyridin-3-yl)pyrrolidin-1-yl)sulfonyl)methyl)phenoxy)pyrrolidin-1-yl)methanone] | 77 |
| CO[C@@H]1CN(C(=O)c2cc(C)ccc2C)C[C@H]1Oc1cccc(CS(=O)(=O)N2CCCC2c2ccncc2)c1 (relative stereo) [Example 18, trans-(2,5-dimethylphenyl)(3-methoxy-4-(3-(((2-(pyridin-4-yl)pyrrolidin-1-yl)sulfonyl)methyl)phenoxy)pyrrolidin-1-yl)methanone] | 75 |
| CO[C@@H]1CN(C(=O)c2cc(C)ccc2C)C[C@H]1Oc1cccc(CS(=O)(=O)N2CCC23CCOC3)c1 (relative stereo) [Example 19, trans-(2,5-dimethylphenyl)(3-methoxy-4-(3-((6-oxa-1-azaspiro[3.4]oct-1-ylsulfonyl)methyl)phenoxy)pyrrolidin-1-yl)methanone] | 67 |
| CO[C@@H]1CN(C(=O)c2cc(C)ccc2C)C[C@H]1Oc1cccc(CS(=O)(=O)N2CCC23CCOCC3)c1 (relative stereo) [Example 21, trans-(2,5-dimethylphenyl)(3-methoxy-4-(3-((7-oxa-1-azaspiro[3.5]non-1-ylsulfonyl)methyl)phenoxy)pyrrolidin-1-yl)methanone] | 70 |
| CO[C@@H]1CN(C(=O)c2cc(C)ccc2C)C[C@H]1Oc1cccc(NS(=O)(=O)N2CCCC2)c1 (relative stereo) [Example 22, trans-N-(3-((1-(2,5-dimethylbenzoyl)-4-methoxypyrrolidin-3-yl)oxy)phenyl)pyrrolidine-1-sulfonamide] | 65 |
| CO[C@@H]1CN(C(=O)c2cc(C)ccc2C)C[C@H]1Oc1cccc(NS(=O)(=O)N2CCCC2C)c1 (relative stereo) [Example 23, trans-N-(3-((1-(2,5-dimethylbenzoyl)-4-methoxypyrrolidin-3-yl)oxy)phenyl)-2-methylpyrrolidine-1-sulfonamide] | 60 |
| CO[C@@H]1CN(C(=O)c2cc(C)ccc2C)C[C@H]1Oc1cccc(CS(=O)(=O)N(C)C2CCOCC2)c1 (relative stereo) [Example 31, trans-1-(3-((1-(2,5-dimethylbenzoyl)-4-methoxypyrrolidin-3-yl)oxy)phenyl)-N-methyl-N-(tetrahydro-2H-pyran-4-yl)methanesulfonamide] | 94 |
| CO[C@@H]1CN(C(=O)c2cc(C)ccc2C)C[C@H]1Oc1cccc(CS(=O)(=O)N2CCC23CN(C(=O)OC(C)(C)C)C3)c1 (relative stereo) [Example 32, tert-butyl trans-1-((3-((1-(2,5-dimethylbenzoyl)-4-methoxypyrrolidin-3-yl)oxy)benzyl)sulfonyl)-1,6-diazaspiro[3.3]heptane-6-carboxylate] | 109 |
| CO[C@@H]1CN(C(=O)c2cc(C)ccc2C)C[C@H]1Oc1cccc(CS(=O)(=O)N2CCC23CCN(C(=O)OC(C)(C)C)C3)c1 (relative stereo) [Example 33, tert-butyl trans-1-((3-((1-(2,5-dimethylbenzoyl)-4-methoxypyrrolidin-3-yl)oxy)benzyl)sulfonyl)-1,6-diazaspiro[3.4]octane-6-carboxylate] | 105 |
| CO[C@@H]1CN(C(=O)c2cc(C)ccc2C)C[C@H]1Oc1cccc(CS(=O)(=O)N2CCC23COC3)c1 (relative stereo) [Example 34, trans-(2,5-dimethylphenyl)(3-methoxy-4-(3-((6-oxa-1-azaspiro[3.3]hept-1-ylsulfonyl)methyl)phenoxy)pyrrolidin-1-yl)methanone] | 87 |
| CO[C@@H]1CN(C(=O)c2cc(C)ccc2C)C[C@H]1Oc1cccc(CS(=O)(=O)N2CCCC2Cc2cccnc2)c1 (relative stereo) [Example 36, trans-(2,5-dimethylphenyl)(3-methoxy-4-(3-(((2-(pyridin-3-ylmethyl)pyrrolidin-1-yl)sulfonyl)methyl)phenoxy)pyrrolidin-1-yl)methanone] | 89 |
| CO[C@@H]1CN(C(=O)c2cc(C)ccc2C)C[C@H]1Oc1cccc(CS(=O)(=O)N2CCCC2c2ccccc2Cl)c1 (relative stereo) [Example 37, trans-(3-(3-(((2-(2-chlorophenyl)pyrrolidin-1-yl)sulfonyl)methyl)phenoxy)-4-methoxypyrrolidin-1-yl)(2,5-dimethylphenyl)methanone] | 86 |
| CO[C@@H]1CN(C(=O)c2cc(C)ccc2C)C[C@H]1Oc1cccc(CS(=O)(=O)N2CCCC2c2ncccn2)c1 (relative stereo) [Example 38, trans-(2,5-dimethylphenyl)(3-methoxy-4-(3-(((2-(pyrimidin-2-yl)pyrrolidin-1-yl)sulfonyl)methyl)phenoxy)pyrrolidin-1-yl)methanone] | 98 |
| CO[C@@H]1CN(C(=O)c2cc(C)ccc2C)C[C@H]1Oc1cccc(CS(=O)(=O)N2CCCC2c2cnccn2)c1 (relative stereo) [Example 39, trans-(2,5-dimethylphenyl)(3-methoxy-4-(3-(((2-(pyrazin-2-yl)pyrrolidin-1-yl)sulfonyl)methyl)phenoxy)pyrrolidin-1-yl)methanone] | 76 |
| CO[C@@H]1CN(C(=O)c2cc(C)ccc2C)C[C@H]1Oc1cccc(CS(=O)(=O)N2CCCC2c2nccs2)c1 (relative stereo) [Example 40, trans-(2,5-dimethylphenyl)(3-methoxy-4-(3-(((2-(1,3-thiazol-2-yl)pyrrolidin-1-yl)sulfonyl)methyl)phenoxy)pyrrolidin-1-yl)methanone] | 79 |
